This is an account of results in US20130338092A1, “COMPOUNDS AND METHODS FOR TARGETING LEUKEMIC STEM CELLS” (The Broad Institute, Inc., priority 2011, published 2013).

“Also recorded” adds a separate entry of the source.

In test [1] the test system is LSC-enriched leukemia cells on OP9 stromal cells. The test can be described thus: Leukemia coculture assay on OP9 stroma (primary screen). To be noted: 5 μM. The test is classed as cell-based, murine. Here is the method:
Plate covers were re-added and the plates were placed in the incubator for 24 hours. The plate covers were removed, 100 nl of compound in dimethyl sulfoxide (DMSO) (final concentration 5 μM in 0.2% DMSO) was added to the appropriate wells using a CyBi-Well Vario (CyBio) the plate covers were replaced, and the plates were placed in the incubator for 3 days. Plate covers were removed, the media was aspirated from each plate, 50 μl of fresh media (50/50 coculture and OP9 conditioned media mix) was added and another 100 nl of compound was added to the appropriate wells. The plates were re-covered and placed in the incubator for 2 days. At this point, the plates were imaged using a IX Microscope (Molecular Devices) at 10× magnification at 9 sites per well in both the GFP and dsRed channels. Images were stored on the Broad Institute server for future analysis. […]
Briefly, primary dsRed^+ leukemia cells enriched for LSCs were isolated by flow cytometry and cocultured on GFP^+ OP9 stromal monolayers, treated with 5 μM of compound (to a final concentration of 0.2% DMSO), and imaged 5 days later by automated microscopy (dsRed channel for leukemia, and GFP channel for stroma) (FIG. 1). The stored images were analyzed for levels of cobblestoning as described herein.

In test [2] the test system is primary leukemia cocultures. As to the kind of experiment: Mevalonolactone rescue experiment. The test is classed as cell-based, murine. As to conditions: 2 mM mevalanolactone with 1 μM lovastatin, 5 days. Here is the method:
Primary leukemia cocultures were plated as described, and treated with 2 mM mevalanolactone and/or 1 μM lovastatin as shown, for 5 days. Total leukemia cells were counted using MetaXpress software from MDC. Carriers were controlled for across all treatments. The viability of the stroma was assessed using stromal monolayers grown alone and treated in parallel, with the same readout described in the stromal toxicity screen here.

Turning to `CC[C@H](C)[C@@H](COC(Cc1ccccc1)C(=O)N[C@@H](CCS(C)(=O)=O)C(=O)OC(C)C)NC[C@@H](N)CS` (stereo partly drawn) [L-744, 832], the figures for the “hit in primary screen” value in test [1] and in test [1] (listed as L-744832) were “independently scored” and “independently hit”, respectively.
Turning to `C[C@@]1(O)CCOC(=O)C1` [mevalonolactone], in test [2], the “rescue of anti-leukemia effect of lovastatic acid” value is recorded as “rescues the anti-leukemia effect of lovastatin; also recorded: rescued the anti-leukemia effects of lovastatic acid”.
